Series [1] concerns 67NR-embedded ECM. Kind of series: ECM fibril alignment (coherence analysis) in 67NR spheroid-embedded ECM. The series is classed as cell-based, mouse. The note with it: 0.5 mM genipin, 24 hours, vs control. The method, then: Spheroid encapsulation without fibroblast: after the spheroid adhered to the glass bottom well via collagen, the liquid collagen kept at the 4° C. was poured to the well to embed the spheroid. 40 μL liquid collagen was slowly pipetted into the well and allowed to gel for 2 hours at room temperature. 2 mL DMEM was then added into the well. The embedded spheroid was incubated for at least 1 day or longer before being used.
(§1) ECM crosslinking. ECM-encapsulated 67NR spheroids were prepared as previously described. After 1-hour incubation, genipin (Sigma-Aldrich, G4796) was mixed with DMEM to reach final concertation of 0.5 mM and 1 mM. The solutions were then added to the samples and incubated for 24 hours. The DMSO-added DMEM were used as a control for the experiment. The samples were then washed with PBS for further usage.
(§2) Fibril coherence analysis was performed using Quantitative orientation measurement in orientationJ21. The immunostaining was quantified using Fiji/ImageJ software. […]
To determine whether 67NR spheroid alone is sufficient to align the fibrils, time-lapse imaging was performed by embedding EpH4-Ev and 67NR spheroids in ECM without fibroblasts. […] To quantify the degree of fibril alignment, coherence analysis 21 was performed. […] Fibril orientations within and outside the 300-μm perimeter from the spheroid were evaluated separately.

In series [2] the test system is αSMA expression in NIH-3T3 fibroblasts. Put plainly: αSMA immunofluorescence in fibroblasts, 67NR spheroid coculture. The series is classed as cell-based, mouse. The method, then:
(§3) Spheroid encapsulation with fibroblasts: for coculture, 40 μL collagen was used to re-suspend 2×10^5 NIH-3T3 cells after centrifugation. The fibroblasts-containing liquid collagen was then added to the glass bottom well where a spheroid was placed in its center. The mixture was allowed to gel at room temperature for 2 hours. 2 mL DMEM was then added into the well. The embedded spheroid was incubated for at least 1 day or longer, as indicated in the text, before being used.
as §1
(§4) Immunofluorescence. Samples were fixed in 4% paraformaldehyde for 30 minutes, permeabilized with 0.1% Triton X100 (Sigma-Aldrich, X100) in PBS for 30 minutes. PBS containing 2% bovine serum albumin (Sigma-Aldrich, A7906) and 0.1% Tween-20 (Promega) was then added to sample for 30 minutes for blocking. All antibody was diluted in PBS with 1% bovine serum albumin. The fixed cells were incubated with the primary antibody for overnight at 4° C., followed by washing using PBS for 3 times, and then incubated with the secondary antibody for 2 hours. After washing, the samples were immersed in PBS and stored in 4° C. for further usage. […]
as §2
(§5) where II and AI denotes the fluorescence intensity, and the area of the cell, respectively. I2 and A2 denotes the fluorescence intensity, and the area of the larger region encompassing the cell and the surrounding background, respectively. […] The corrected fluorescence intensity was then recorded for each cell.

Series [3] relates to FSP1 expression in NIH-3T3 fibroblasts. Put plainly: FSP1 immunofluorescence in fibroblasts, 67NR spheroid coculture. The series is classed as cell-based, mouse. The method, then: as §3, §1, §4, §2, §5
The subject of series [4] is 67NR-embedded ECM. Kind of series: Line FRAP diffusion enhancement time in spheroid-embedded ECM. The series is classed as cell-based, mouse. The note with it: 0.5 mM genipin-treated 67NR-embedded ECM, 2,000 kDa FITC-dextran. The protocol:
ECM crosslinking. ECM-encapsulated 67NR spheroids were prepared as previously described. After 1-hour incubation, genipin (Sigma-Aldrich, G4796) was mixed with DMEM to reach final concertation of 0.5 mM and 1 mM. The solutions were then added to the samples and incubated for 24 hours. The DMSO-added DMEM were used as a control for the experiment. The samples were then washed with PBS for further usage. Fluorescence recovery after photobleaching. 10 mg/mL of 2,000 kDa fluorescein isothiocyanate (FITC)-Dextran (SigmaAldrich, FD2000S) was added to the collagen gel and incubated for 30 minutes at 37° C. […] The characteristic fluorescence recovery times τD, when 64% of the fluorescence intensity is recovered, was calculated based on the fitted curve. […] Line fluorescence recovery was performed after photobleaching (FRAP) to measure the diffusivity of the spheroid-embedded ECM. […] To assess whether there is enhancement in diffusion rates in the radial direction from the spheroid, the metric “diffusion enhancement time (τDE)” was introduced, defined as the difference in the characteristic fluorescence recovery times τD, when 64% of the fluorescence intensity is recovered, between the two stripes: […]) where rD(radial) represents the rD measured in the radial direction, and rD(orthogonal) in the corresponding orthogonal direction. […]

The test system of a further series is 67NR spheroids. Put plainly: Cytotoxicity in genipin-treated 67NR-embedded ECM. It is filed as cell-based, mouse. The note with it: 0.5 mM genipin, 24 hours. The method, then:
as §1
The corollary to the observation that ECM fibril alignment promotes CAF induction in the coculture is that suppressing such alignment will attenuate it. To confirm this, genipin, a biocompatible crosslinking reagent, was used to suppress the fibril reorganization. The optimal genipin concentration was identified to be 0.5 mM. […] Yet the fibril alignment was suppressed by 28% (FIGS. 5A-5B). […] Though ECM crosslinking might lead to CAF induction because of ECM stiffening, it was not the case in these experiments. […] Having had established the optimal genipin concentration to suppress fibril alignment, it was used to evaluate whether CAF induction in cocultured fibroblasts would be attenuated. […] To exclude the possibility that genipin directly downregulates CAF markers in fibroblasts, their expression was evaluated in genipin-treated samples containing fibroblasts only.

Series [5] can be described thus: Rheological measurement (LAOS) of crosslinked collagen gel. The series is classed as physicochemical. The method, then:
ECM crosslinking. ECM-encapsulated 67NR spheroids were prepared as previously described. After 1-hour incubation, genipin (Sigma-Aldrich, G4796) was mixed with DMEM to reach final concertation of 0.5 mM and 1 mM. The solutions were then added to the samples and incubated for 24 hours. The DMSO-added DMEM were used as a control for the experiment. The samples were then washed with PBS for further usage. Elastic modulus measurement. The Large […] Oscillatory Shear (LAOS) was used to test the shear modulus of the crosslinked and uncrosslinked collagen gel. The collagen gel was prepared in disks and subjected to sinusoidal rotational deformation. The amplitude of the applied strain (y) to the material was increased at a fixed rotational frequency (w) of 1 rad/s. The analysis utilized a viscoelastic stress response model wherein the shear stress is computed as a function of strain ranging from 0.01%-15%. The Fourier Transform method was utilized to quantify the nonlinear stress response of ECM samples under increasingly large angular shear strain. LAOS was performed using an Anton Paar Modular Compact Rheometer (MCR 302) with a parallel plate (diameter 8 mm) at 37° C. The measurement values of the shear modulus were then used obtain the elastic modulus by the formula: E=2G(1+v) where E is elastic modulus, G is shear modulus, and v is the Poisson ratio. The Poisson ratio was assumed to be 0.5.

In series [6] the test system is αSMA expression in human lung fibroblasts (MRCS). Put plainly: TGFβ1-mediated CAF induction (αSMA expression) in human lung fibroblasts. The series is classed as cell-based. The note with it: control fibroblasts, TGFβ1 10 ng/mL, vs non-treated group, p<0.001. From the text:
Prototype STAR fibroblasts were generated by introducing the dominant negative form of RhoA (RhoA^T19N) into to human lung fibroblasts (MRCS) to reduce RhoA signaling, a key mediator for CAF phenotypes.

The mark [7] stands for this setting: fibroblast-only samples after genipin treatment.
Setting [8] is: genipin-treated cocultures, fibroblasts outside 300-μm perimeter, treatment vs control.
The mark [9] stands for this setting: genipin-treated cocultures, fibroblasts within the 300-μm perimeter from the spheroid.

The molecule `COC(=O)C1=CO[C@@H](O)[C@@H]2C(CO)=CC[C@H]12` [genipin] yielded a fibril alignment suppressed in the series on 67NR-embedded ECM [1] of 28%. The αSMA expression entry in series [2] (setting [7]) is given as “remained unchanged”. Also, the αSMA expression decreased in series [2] (setting [8]) was determined as 39%. Moreover, the αSMA expression reduced in series [2] (setting [9]) is reported as 33%. Moreover, the FSP1 expression entry in series [3] (setting [7]) was “remained unchanged”. The FSP1 expression decreased in series [3] (setting [8]) is 36%. Also, the FSP1 expression reduced in series [3] (setting [9]) was determined as 23%. Also, the “rDE value (diffusion enhancement time)” value with 67NR-embedded ECM [4] is listed as “decreased to a negligible level”. The cytotoxicity entry in the series with 67NR spheroids was “no observable cytotoxicity”. Further, the ECM stiffening result in series [5] (0.5 mM genipin, 24 hours) is “negligible ECM stiffening”. For the same molecule, the “shear moduli vs uncrosslinked control” value in series [5] (0.5 mM genipin-treated ECM) is given as “comparable”. Also, the “elastic modulus of the ECM (mean±s.d.)” value in series [5] (ECM treated with 0.5 mM genipin) turned out to be 755±163 Pa. For the same molecule, in series [5] (ECM treated with 1 mM genipin vs un-crosslinked ECM), the ECM became stiffer is reported as 29%.
In turn, “TGFβ1: cytokine used at 10 ng/mL to induce CAF phenotype in fibroblasts” showed a αSMA expression increase in series [6] of 50%.

Source of the values: patent publication US20230050202A1, “ENGINEERED FIBROBLASTS AS CELL THERAPY TO TREAT CANCER VIA TUMOR STROMA STABILIZATION” (The Johns Hopkins University, priority 2020, published 2023).
